Patent US8741944B2, “Anti-infective agents against intracellular pathogens” (priority 2007, dated 2014)
Read-outs that look alike come from different tables or passages of the source.

Tests used:
PC-3 cells [1] = assay: Cell viability analysis, MTT assay in PC-3 cells; assay type: cell-based, human; conditions: inducing apoptotic death in PC-3 cells / PC-3 cell viability; read-out: IC50 PC-3
Procedure: Cell Culture PC-3 (p53−/−) human androgen-non-responsive prostate cancer cells were purchased from the American […] (Manassas, Va.). Cells were cultured in RPMI 1640 medium (Gibco, Grand Island, N.Y.) supplemented with 10% fetal bovine serum (FBS; Gibco) at 37° C. in a humidified incubator containing 5% CO2.
Controls received DMSO vehicle at a concentration equal to that in drug-treated cells. The medium was removed, replaced by 200 μl of 0.5 mg/ml of MTT in 10% FBS-containing RPMI-1640 medium, and cells were incubated in the CO2 incubator at 37° C. for 2 h. Supernatants were removed from the wells, and the reduced MTT dye was solubilized in 200 μL/well DMSO. Absorbance at 570 nm was determined on a plate reader.

Akt = assay: Direct inhibition of immunoprecipitated Akt kinase activity; assay type: biochemical, human
PC-3 cells [2] = assay: Apoptosis analysis in PC-3 cells (DNA fragmentation ELISA, PARP cleavage); assay type: cell-based, human; conditions: 1% FBS-containing medium
Procedure: Apoptosis analysis Two methods were used to assess drug-induced apoptotic cell death: detection of DNA fragmentation by the Cell Death Detection ELISA kit (Roche Diagnostics. Mannheim, Germany) and Western blot analysis of poly-(ADP-ribose)polymerase (PARP) cleavage. […] In brief, 4×10^5 PC-3 cells were cultured in a T-25 flask for 24 h before treatment. Cells were treated with the DMSO vehicle or the test agent at the indicated concentrations for 6-24 h, collected, and cell lysates equivalent to 2×10^3 PC-3 cells were used in the ELISA. For the PARP cleavage assay, drug-treated cells were collected 4-8 h post-treatment, washed with ice-cold PBS, and resuspended in lysis buffer containing 20 mM Tris-HCl, pH 8, 137 mM NaCl, 1 mM CaCl2, 10% glycerol, 1% Nonidet P-40, 0.5% deoxycholate, 0.1% SDS, 100 μM 4-(2-aminoethyl)benzenesulfonyl fluoride, leupeptin at 10 μg/mL, and aprotinin at 10 μg/mL. Soluble cell lysates were collected after centrifugation at 10,000 g for 5 min. Equivalent amounts of proteins (60-100 μg) from each lysate were resolved in 8% SDS-polyacrylamide gels. Bands were transferred to nitrocellulose membranes, and analyzed by immunoblotting with anti-PARP antibody.

recombinant PDK-1 = recombinant PDK-1 (Homo sapiens (Human), UniProt O15530); assay: PDK-1 kinase activity (PDK-1 kinase assay kit, cell-free); assay type: biochemical
Procedure: PDK-1 kinase activity This in vitro assay was performed using a PDK-1 kinase assay kit (Upstate, Lake Placid, N.Y.) according to the vendor's instructions. This cell-free assay is based on the ability of recombinant PDK-1, in the presence of DMSO vehicle or the test agent, to activate its downstream kinase serum- and glucocorticoid-regulated kinase (SGK.) which, in turn, phosphorylates the Akt/SGK-specific peptide substrate RPRAATF with [γ-^32]-ATP. […] The reported values represent the means of two independent determinations.

COX-2 = COX-2 (Homo sapiens (Human), UniProt P35354); assay: COX-2 inhibitory activity; assay type: biochemical; conditions: concentrations up to 50 μM
phospho-Akt = assay: Western blot analysis of Akt and phospho-Akt in PC-3 cells; assay type: cell-based, human; conditions: even at 1 μM
Procedure: Immunoblotting. The general procedure for the Western blot analysis of Akt and phospho-Akt is described as follows. Cells were washed in PBS, resuspended in SDS sample buffer sonicated by an ultrasonic sonicator for 5 see, and boiled for 5 min. After brief centrifugation, equivalent protein concentrations from the soluble fractions were resolved in 10% SDS-polyacrylamide gels on a Minigel apparatus, and transferred to a nitrocellulose membrane using a semi-dry transfer cell. The transblotted membrane was washed three times with TBS containing 0.05% Tween 20 (TBST). After blocking with TBST containing 5% nonfat milk for 60 min., the membrane was incubated with the primary antibody at 1:1,000 dilution in TBST-5% low fat milk at 4° C. for 12 h, and was then washed three times with TBST. The membrane was probed with goat anti-rabbit IgG-HRP conjugates (1:1,000) for 1 h at room temperature, and was washed with TBST three times. The immunoblots were visualized by enhanced chemiluminescence.

SF-295 (CNS Cancer) = assay: NCI DTP tumor cell line screen (SRB), SF-295
Procedure: (§1) For a typical screening experiment, cells are inoculated into 96 well microtiter plates in 100 μL at plating densities ranging from 5,000 to 40,000 cells/well depending on the doubling time of individual cell lines. After cell inoculation, the microtiter plates are incubated at 37° C., 5% CO2, 95% air and 100% relative humidity for 24 h prior to addition of experimental drugs.
(§2) After 24 h, two plates of each cell line are fixed in situ with TCA, to represent a measurement of the cell population for each cell line at the time of drug addition (Tz). Experimental drugs are solubilized in dimethyl sulfoxide at 400-fold the desired final maximum test concentration and stored frozen prior to use. At the time of drug addition, an aliquot of frozen concentrate is thawed and diluted to twice the desired final maximum test concentration with complete medium containing 50 μg/ml gentamicin. Additional four, 10-fold or ½ log serial dilutions are made to provide a total of five drug concentrations plus control. Aliquots of 100 μl of these different drug dilutions are added to the appropriate microtiter wells already containing 100 μl of medium, resulting in the required final drug concentrations.
(§3) Following drug addition, the plates are incubated for an additional 48 h at 37° C., 5% CO2, 95% air, and 100% relative humidity. For adherent cells, the assay is terminated by the addition of cold TCA. Cells are fixed in situ by the gentle addition of 50 μl of cold 50% (w/v) TCA (final concentration, 10% TCA) and incubated for 60 minutes at 4° C. The supernatant is discarded, and the plates are washed five times with tap water and air dried. Sulforhodamine B (SRB) solution (1001) at 0.4% (w/v) in 1% acetic acid is added to each well, and plates are incubated for 10 minutes at room temperature. After staining, unbound dye is removed by washing five times with 1% acetic acid and the plates are air dried. Bound stain is subsequently solubilized with 10 mM trizma base, and the absorbance is read on an automated plate reader at a wavelength of 515 nm. For suspension cells, the methodology is the same except that the assay is terminated by fixing settled cells at the bottom of the wells by gently adding 50 μl of 80% TCA (final concentration, 16% TCA). Using the seven absorbance measurements [time zero, (Tz), control growth, (C), and test growth in the presence of drug at the five concentration levels (Ti)], the percentage growth is calculated at each of the drug concentrations levels. Percentage growth inhibition is calculated as: [(Ti−Tz)/(C−Tz)]×100 for concentrations for which Ti>/=Tz [(Ti−Tz)/Tz]×100 for concentrations for which Ti<Tz
(§4) Three dose response parameters are calculated for each experimental agent. […] The drug concentration resulting in total growth inhibition (TGI) is calculated from Ti=Tz. […] Values are calculated for each of these three parameters if the level of activity is reached; however, if the effect is not reached or is exceeded, the value for that parameter is expressed as greater or less than the maximum or minimum concentration tested.

[3] = test system: NCI-H226 (Non-Small Cell Lung Cancer)
Procedure: as §1, §2, §3, §4

SNB-19 (CNS Cancer) = assay: NCI DTP tumor cell line screen (SRB), SNB-19
Procedure: as §1, §2, §3, §4

SF-268 (CNS Cancer) = assay: NCI DTP tumor cell line screen (SRB), SF-268
Procedure: as §1, §2, §3, §4

U251 (CNS Cancer) = assay: NCI DTP tumor cell line screen (SRB), U251
Procedure: as §1, §2, §3, §4

Chain of COX-2 (P35354 whole entry, looked up): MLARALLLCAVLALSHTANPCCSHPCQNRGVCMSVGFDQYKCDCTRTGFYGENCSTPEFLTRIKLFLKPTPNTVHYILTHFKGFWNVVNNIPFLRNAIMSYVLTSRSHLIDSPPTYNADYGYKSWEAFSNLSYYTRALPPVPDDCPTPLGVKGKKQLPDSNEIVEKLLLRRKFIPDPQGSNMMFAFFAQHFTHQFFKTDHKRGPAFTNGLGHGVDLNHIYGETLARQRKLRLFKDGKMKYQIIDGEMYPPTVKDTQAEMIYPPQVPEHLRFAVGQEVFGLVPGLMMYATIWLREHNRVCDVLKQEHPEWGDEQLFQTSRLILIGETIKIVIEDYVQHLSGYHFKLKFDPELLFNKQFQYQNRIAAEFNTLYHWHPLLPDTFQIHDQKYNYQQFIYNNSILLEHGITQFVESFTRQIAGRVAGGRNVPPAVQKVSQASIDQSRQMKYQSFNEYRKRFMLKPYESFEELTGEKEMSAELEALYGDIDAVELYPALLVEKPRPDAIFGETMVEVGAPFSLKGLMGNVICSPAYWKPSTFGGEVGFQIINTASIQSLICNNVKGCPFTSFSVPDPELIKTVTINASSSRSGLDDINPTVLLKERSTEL
Chain of recombinant PDK-1 (O15530 whole entry, looked up): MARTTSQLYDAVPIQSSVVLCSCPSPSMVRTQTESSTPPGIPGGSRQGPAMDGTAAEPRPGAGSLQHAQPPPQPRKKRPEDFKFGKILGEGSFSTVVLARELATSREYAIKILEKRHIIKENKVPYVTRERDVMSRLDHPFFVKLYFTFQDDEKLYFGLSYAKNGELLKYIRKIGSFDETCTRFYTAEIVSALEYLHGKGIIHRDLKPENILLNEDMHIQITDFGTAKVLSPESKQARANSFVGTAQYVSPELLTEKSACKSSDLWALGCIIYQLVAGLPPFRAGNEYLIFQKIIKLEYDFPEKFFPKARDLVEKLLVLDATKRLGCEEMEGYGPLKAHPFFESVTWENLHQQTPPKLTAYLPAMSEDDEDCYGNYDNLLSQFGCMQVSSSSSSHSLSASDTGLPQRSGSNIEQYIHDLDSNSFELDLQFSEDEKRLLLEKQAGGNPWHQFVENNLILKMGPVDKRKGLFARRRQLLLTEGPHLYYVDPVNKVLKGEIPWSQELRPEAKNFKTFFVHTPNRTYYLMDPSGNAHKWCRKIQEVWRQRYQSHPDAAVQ

4-[5-(2-Phenanthrenyl)-3-(trifluoromethyl)-1H-pyrazol-1-yl]-phenyl -guanidine [Compound 71]
IC50 (PC-3 cells [1]): 3 µM
direct inhibitory effect on immunoprecipitated Akt kinase activity (Akt): no appreciable direct inhibition
apoptotic death in PC-3 cells (DNA fragmentation and PARP cleavage) (PC-3 cells [2]): induced apoptotic death
increase in PDK-1 inhibition potency over compound 59 (recombinant PDK-1): five-fold
COX-2 inhibitory activity (COX-2): nor was any measurable COX-2 inhibitory activity detected
phospho-Akt level (phospho-Akt): substantial decrease

NCC(=O)Nc1ccc(-n2nc(C(F)(F)F)cc2-c2ccc3c(ccc4ccccc43)c2)cc1 [Compound 70, 2-Amino-N-{4-[5-(2-phenanthrenyl)-3-(trifluoromethyl)-1H-pyrazol-1-yl]-phenyl}-acetamide]
TGI (SF-295 (CNS Cancer)): 3.71E−06
Mean Optical Densities (SF-295 (CNS Cancer); Log10 Concentration −4.0): 0.287
Mean Optical Densities (SF-295 (CNS Cancer); Log10 Concentration −5.0): 0.225
Percent Growth (SF-295 (CNS Cancer); Log10 Concentration −5.0): −47%
Mean Optical Densities (SF-295 (CNS Cancer); Log10 Concentration −6.0): 0.915
Percent Growth (SF-295 (CNS Cancer); Log10 Concentration −6.0): 62%
Mean Optical Densities (SF-295 (CNS Cancer); Log10 Concentration −7.0): 1.190
Percent Growth (SF-295 (CNS Cancer); Log10 Concentration −7.0): 96%
Mean Optical Densities (SF-295 (CNS Cancer); Log10 Concentration −8.0): 1.173
Percent Growth (SF-295 (CNS Cancer); Log10 Concentration −8.0): 94%
TGI [3]: 3.21E−06
Mean Optical Densities ([3]; Log10 Concentration −4.0): 0.614
Mean Optical Densities ([3]; Log10 Concentration −5.0): 0.505
Percent Growth ([3]; Log10 Concentration −5.0): −58%
Mean Optical Densities ([3]; Log10 Concentration −6.0): 1.429
Percent Growth ([3]; Log10 Concentration −6.0): 59%
Mean Optical Densities ([3]; Log10 Concentration −7.0): 1.586
Percent Growth ([3]; Log10 Concentration −7.0): 98%
Mean Optical Densities ([3]; Log10 Concentration −8.0): 1.593
Percent Growth ([3]; Log10 Concentration −8.0): 100%
TGI (SNB-19 (CNS Cancer)): 3.15E−06
Mean Optical Densities (SNB-19 (CNS Cancer); Log10 Concentration −4.0): 0.324
Mean Optical Densities (SNB-19 (CNS Cancer); Log10 Concentration −5.0): 0.219
Percent Growth (SNB-19 (CNS Cancer); Log10 Concentration −5.0): −59%
Mean Optical Densities (SNB-19 (CNS Cancer); Log10 Concentration −6.0): 1.230
Percent Growth (SNB-19 (CNS Cancer); Log10 Concentration −6.0): 59%
Mean Optical Densities (SNB-19 (CNS Cancer); Log10 Concentration −7.0): 1.655
Percent Growth (SNB-19 (CNS Cancer); Log10 Concentration −7.0): 94%
Mean Optical Densities (SNB-19 (CNS Cancer); Log10 Concentration −8.0): 1.562
Percent Growth (SNB-19 (CNS Cancer); Log10 Concentration −8.0): 87%
TGI (SF-268 (CNS Cancer)): 4.16E−06
Mean Optical Densities (SF-268 (CNS Cancer); Log10 Concentration −4.0): 0.280
Mean Optical Densities (SF-268 (CNS Cancer); Log10 Concentration −5.0): 0.252
Percent Growth (SF-268 (CNS Cancer); Log10 Concentration −5.0): −33%
Mean Optical Densities (SF-268 (CNS Cancer); Log10 Concentration −6.0): 0.789
Percent Growth (SF-268 (CNS Cancer); Log10 Concentration −6.0): 54%
Mean Optical Densities (SF-268 (CNS Cancer); Log10 Concentration −7.0): 0.930
Percent Growth (SF-268 (CNS Cancer); Log10 Concentration −7.0): 72%
Mean Optical Densities (SF-268 (CNS Cancer); Log10 Concentration −8.0): 1.016
Percent Growth (SF-268 (CNS Cancer); Log10 Concentration −8.0): 84%
TGI (U251 (CNS Cancer)): 2.64E−06
Mean Optical Densities (U251 (CNS Cancer); Log10 Concentration −4.0): 0.320
Mean Optical Densities (U251 (CNS Cancer); Log10 Concentration −5.0): 0.144
Percent Growth (U251 (CNS Cancer); Log10 Concentration −5.0): −63%
Mean Optical Densities (U251 (CNS Cancer); Log10 Concentration −6.0): 0.810
Percent Growth (U251 (CNS Cancer); Log10 Concentration −6.0): 46%
Mean Optical Densities (U251 (CNS Cancer); Log10 Concentration −7.0): 1.139
Percent Growth (U251 (CNS Cancer); Log10 Concentration −7.0): 82%
Mean Optical Densities (U251 (CNS Cancer); Log10 Concentration −8.0): 1.298
Percent Growth (U251 (CNS Cancer); Log10 Concentration −8.0): 100%
